Assays:
Test in all cases: competitive isoTOP-ABPP
Type in all cases: binding
[1] = target: T1, LMNA Prelamin-A/C (Homo sapiens, UniProt P02545); conditions: for isoTOP-ABPP ratio (R) at liganded lysine P02545_K135: 50 uM, in vitro, sol, 231
T1 construct: isoTOP-ABPP experiments performed in cell lysates (in vitro); endogenous in cells; host or cells: MDA-MB-231 soluble lysate
T1 sequence (P02545 1-664): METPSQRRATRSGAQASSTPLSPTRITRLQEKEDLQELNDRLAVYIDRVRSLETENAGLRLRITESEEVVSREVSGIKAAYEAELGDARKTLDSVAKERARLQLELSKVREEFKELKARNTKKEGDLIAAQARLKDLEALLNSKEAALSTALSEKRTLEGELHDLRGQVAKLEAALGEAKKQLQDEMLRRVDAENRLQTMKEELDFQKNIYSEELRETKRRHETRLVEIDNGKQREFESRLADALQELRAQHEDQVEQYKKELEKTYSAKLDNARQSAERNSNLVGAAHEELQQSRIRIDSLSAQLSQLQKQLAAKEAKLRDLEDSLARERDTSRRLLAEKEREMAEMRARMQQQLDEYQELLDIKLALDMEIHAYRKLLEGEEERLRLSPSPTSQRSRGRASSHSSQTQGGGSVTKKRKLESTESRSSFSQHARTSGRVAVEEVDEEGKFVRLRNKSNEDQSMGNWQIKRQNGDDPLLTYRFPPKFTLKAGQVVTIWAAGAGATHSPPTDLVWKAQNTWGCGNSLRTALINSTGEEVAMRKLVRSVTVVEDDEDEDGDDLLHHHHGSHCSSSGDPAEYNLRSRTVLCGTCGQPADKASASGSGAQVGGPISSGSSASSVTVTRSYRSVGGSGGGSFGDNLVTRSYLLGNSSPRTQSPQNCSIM
Method in brief: (§1)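 Probe: STP-alkyne, 0.1 mM, 1 h RT, after fragment pretreatment of lysate (esters 50 μM; guanidinylators 100 μM). Tags: light = compound, heavy = DMSO, via CuAAC. Replicates averaged if SD <60% of mean; otherwise lowest ratio used when any R <4.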

[2] = target: T2, RPL10 60S ribosomal protein L10 (Homo sapiens, UniProt P27635); conditions: for isoTOP-ABPP ratio (R) at liganded lysine P27635_K121: 50 uM, in vitro, sol, 231
T2 construct: isoTOP-ABPP experiments performed in cell lysates (in vitro); endogenous in cells; host or cells: soluble proteome of human cancer cell lines (MDA-MB-231; Ramos and Jurkat also prepared)
Method in brief: as §1

[3] = target: T3, MRPS24 28S ribosomal protein S24, mitochondrial (Homo sapiens, UniProt Q96EL2); conditions: for isoTOP-ABPP ratio (R) at liganded lysine Q96EL2_K94: 50 uM, in vitro, sol, 231
T3 construct: isoTOP-ABPP experiments performed in cell lysates (in vitro); endogenous in cells; host or cells: soluble proteome of human cancer cell lines (MDA-MB-231; Ramos and Jurkat also prepared)
Method in brief: as §1

[4] = target: T4, WARS Tryptophan--tRNA ligase, cytoplasmic (Homo sapiens, UniProt P23381); conditions: for isoTOP-ABPP ratio (R) at liganded lysine P23381_K256: 50 uM, in vitro, sol, 231
T4 construct: isoTOP-ABPP experiments performed in cell lysates (in vitro); endogenous in cells; host or cells: soluble proteome of human cancer cell lines (MDA-MB-231; Ramos and Jurkat also prepared)
T4 sequence (P23381 1-471): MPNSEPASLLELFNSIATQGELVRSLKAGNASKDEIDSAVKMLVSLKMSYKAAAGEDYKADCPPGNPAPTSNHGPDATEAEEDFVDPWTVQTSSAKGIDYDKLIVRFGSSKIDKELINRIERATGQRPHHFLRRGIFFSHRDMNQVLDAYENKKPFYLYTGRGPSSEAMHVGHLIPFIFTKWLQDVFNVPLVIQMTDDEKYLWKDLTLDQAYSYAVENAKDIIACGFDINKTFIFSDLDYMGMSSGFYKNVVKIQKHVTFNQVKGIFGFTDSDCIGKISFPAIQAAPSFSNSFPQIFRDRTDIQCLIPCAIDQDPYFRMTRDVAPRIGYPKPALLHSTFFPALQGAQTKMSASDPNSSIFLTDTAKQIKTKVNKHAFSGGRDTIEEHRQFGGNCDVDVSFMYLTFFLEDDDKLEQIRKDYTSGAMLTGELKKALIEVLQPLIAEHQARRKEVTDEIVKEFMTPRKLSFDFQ
Method in brief: as §1

[5] = target: T5, RINT1 RAD50-interacting protein 1 (Homo sapiens, UniProt Q6NUQ1); conditions: for isoTOP-ABPP ratio (R) at liganded lysine Q6NUQ1_K771: 50 uM, in vitro, sol, 231
T5 construct: isoTOP-ABPP experiments performed in cell lysates (in vitro); endogenous in cells; host or cells: soluble proteome of human cancer cell lines (MDA-MB-231; Ramos and Jurkat also prepared)
Method in brief: as §1

T5 sequence (Q6NUQ1 whole entry): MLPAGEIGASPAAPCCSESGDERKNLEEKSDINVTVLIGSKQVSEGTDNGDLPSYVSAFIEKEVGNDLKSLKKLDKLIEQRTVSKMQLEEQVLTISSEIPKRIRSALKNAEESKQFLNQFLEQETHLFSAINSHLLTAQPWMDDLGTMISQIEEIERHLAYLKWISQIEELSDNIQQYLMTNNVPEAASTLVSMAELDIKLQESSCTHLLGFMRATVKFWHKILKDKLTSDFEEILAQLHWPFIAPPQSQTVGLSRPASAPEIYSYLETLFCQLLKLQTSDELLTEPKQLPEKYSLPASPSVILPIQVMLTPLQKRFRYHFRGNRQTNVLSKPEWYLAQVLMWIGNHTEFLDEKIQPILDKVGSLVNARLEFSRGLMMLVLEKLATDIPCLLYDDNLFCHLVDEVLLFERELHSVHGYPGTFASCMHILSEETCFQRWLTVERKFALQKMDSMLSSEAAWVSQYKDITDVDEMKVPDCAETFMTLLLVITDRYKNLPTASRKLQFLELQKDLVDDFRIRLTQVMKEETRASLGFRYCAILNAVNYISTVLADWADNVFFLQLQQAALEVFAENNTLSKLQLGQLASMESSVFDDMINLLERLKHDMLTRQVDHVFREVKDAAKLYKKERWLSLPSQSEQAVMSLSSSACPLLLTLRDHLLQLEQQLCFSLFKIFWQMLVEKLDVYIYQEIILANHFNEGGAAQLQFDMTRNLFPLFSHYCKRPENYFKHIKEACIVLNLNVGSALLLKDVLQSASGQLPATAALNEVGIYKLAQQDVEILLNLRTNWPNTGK

Structure (SMILES)	isoTOP-ABPP ratio (R) at liganded lysine P02545_K135 [1]	isoTOP-ABPP ratio (R) at liganded lysine P27635_K121 [2]	isoTOP-ABPP ratio (R) at liganded lysine Q96EL2_K94 [3]	isoTOP-ABPP ratio (R) at liganded lysine P23381_K256 [4]	isoTOP-ABPP ratio (R) at liganded lysine Q6NUQ1_K771 [5]	also measured
O=C(CC12CC3CC(CC(C3)C1)C2)Oc1ccc([N+](=O)[O-])cc1[N+](=O)[O-] [fragment 38, 2,4-Dinitrophenyl 2-(adamantan-1-yl)acetate]	0.8	20.0	3.1	1.4	1.2	–
O=C(Oc1ccc([N+](=O)[O-])cc1[N+](=O)[O-])c1ccc(Oc2ccccc2)cc1 [fragment 39, 2,4-Dinitrophenyl 4-phenoxybenzoate]	1.0	1.0	1.2	0.9	1.5	–
CC(C)(C)OC(=O)NCCCC(=O)Oc1ccc([N+](=O)[O-])cc1[N+](=O)[O-] [fragment 41, 2,4-Dinitrophenyl 4-((tert-butoxycarbonyl)amino)butanoate]	1.1	0.8	1.3	0.9	0.8	–
CC(=O)Oc1ccc([N+](=O)[O-])cc1[N+](=O)[O-] [fragment 43, 2,4-Dinitrophenyl acetate]	20.0	20.0	1.1	1.0	1.0	–
N#Cc1ccc(C(=O)Oc2ccc([N+](=O)[O-])cc2[N+](=O)[O-])cc1 [fragment 44, 2,4-Dinitrophenyl 4-cyanobenzoate]	–	–	–	–	–	isoTOP-ABPP ratio, lysine P02545_K135 ([1]; 50 uM_231_sol_in vitro): 0.9; isoTOP-ABPP ratio, lysine P27635_K121 ([2]; 50 uM_231_sol_in vitro): 0.6; isoTOP-ABPP ratio, lysine Q96EL2_K94 ([3]; 50 uM_231_sol_in vitro): 1.1; isoTOP-ABPP ratio, lysine P23381_K256 ([4]; 50 uM_231_sol_in vitro): 1.1; isoTOP-ABPP ratio, lysine Q6NUQ1_K771 ([5]; 50 uM_231_sol_in vitro): 1.7
O=C(ON1C(=O)CCC1=O)c1cc(C(F)(F)F)cc(C(F)(F)F)c1 [fragment 46, 3,5-Bis(trifluoromethyl)benzoic acid NHS ester]	–	–	–	–	–	isoTOP-ABPP ratio, lysine P02545_K135 ([1]; 50 uM_231_sol_in vitro): 0.7; isoTOP-ABPP ratio, lysine P27635_K121 ([2]; 50 uM_231_sol_in vitro): 0.8; isoTOP-ABPP ratio, lysine Q96EL2_K94 ([3]; 50 uM_231_sol_in vitro): 1.0; isoTOP-ABPP ratio, lysine P23381_K256 ([4]; 50 uM_231_sol_in vitro): 1.6; isoTOP-ABPP ratio, lysine Q6NUQ1_K771 ([5]; 50 uM_231_sol_in vitro): 20.0
COC(=O)NC(=NC(=O)OCC1c2ccccc2-c2ccccc21)n1cccn1 [fragment 49, N-Methoxycarbonyl-N′-9-fluorenylmethoxycarbonyl-pyrazole-1-carboxamidine]	–	–	–	–	–	isoTOP-ABPP ratio, lysine P02545_K135 ([1]; 100 uM_231_sol_in vitro): 1.1; isoTOP-ABPP ratio, lysine P27635_K121 ([2]; 100 uM_231_sol_in vitro): 1.8; isoTOP-ABPP ratio, lysine Q96EL2_K94 ([3]; 100 uM_231_sol_in vitro): 3.0; isoTOP-ABPP ratio, lysine P23381_K256 ([4]; 100 uM_231_sol_in vitro): 1.0; isoTOP-ABPP ratio, lysine Q6NUQ1_K771 ([5]; 100 uM_231_sol_in vitro): 1.1
CC(C)(C)OC(=O)N=C(NC(=O)OC(C)(C)C)n1cccn1 [fragment 50, reference compound]	–	–	–	–	–	isoTOP-ABPP ratio, lysine P02545_K135 ([1]; 100 uM_231_sol_in vitro): 1.3; isoTOP-ABPP ratio, lysine P27635_K121 ([2]; 100 uM_231_sol_in vitro): 1.0; isoTOP-ABPP ratio, lysine Q96EL2_K94 ([3]; 100 uM_231_sol_in vitro): 2.2; isoTOP-ABPP ratio, lysine P23381_K256 ([4]; 100 uM_231_sol_in vitro): 1.1; isoTOP-ABPP ratio, lysine Q6NUQ1_K771 ([5]; 100 uM_231_sol_in vitro): 1.1

— patent US20210255193A1, “LYSINE REACTIVE PROBES AND USES THEREOF” (The Scripps Research Institute, priority 2017, published 2021)
